Laboratory results taken from article PMC13224317 (SLAS discovery : advancing life sciences R & D, 2025).
Several values for one entry are separate records, joined by “and”; a condition that tells them apart may be missing. Equal entries are not always repeated. Where two headings read alike, the source gives them in different places.

Legend:
icSARS-CoV-2-nLuc [1] = assay: microbe, parasite or virus in culture; assay type: cell-based, SARS-CoV-2
icSARS-CoV-2-nLuc [2] = assay type: cell-based, SARS-CoV-2
icSARS-CoV-2-nLuc [3] = assay type: cell-based, SARS-CoV-2; remark: listed apart in the source
icSARS-CoV-2-nLuc [4] = assay: microbe, parasite or virus in culture; assay type: cell-based, SARS-CoV-2; settings: Severe acute respiratory syndrome coronavirus 2, 48 h, read-out: IC50 against icSARS-CoV-2-nLuc, immunofluorescence data
C3 cell line = assay: Cytotoxicity toward the C3 cell line (single point at 10 μM and CC50); assay type: cell-based; settings: raw well reading, duplicate wells
Experimental: The rate of false positive hits was 2.5% between the two biological replicates. […] The 3 compounds have CC50 equal to- or higher than 36 μM. Based on available information, these three compounds have not been tested against SARS-CoV-2 nor have any reports of antiviral activity, and therefore warrant further investigation.

[5] = Severe acute respiratory syndrome coronavirus 2, A549-ACE2, read-out: IC50, susceptibility of icSARS-CoV-2-nLuc to reference drugs, luminescence readout

Structure (SMILES): CC(C)(C)NC(=O)N[C@H](C(=O)N1C[C@H]2[C@@H]([C@H]1C(=O)NC(CC1CCC1)C(=O)C(N)=O)C2(C)C)C(C)(C)C (some centres unmarked) [Boceprelvir, Boceprevir]
- IC50 (icSARS-CoV-2-nLuc [1]; [5]): 3000 nM
- raw nLuc luminescence signal per well, dose response (icSARS-CoV-2-nLuc [1]; concentration 0.444444 µM): 1318016 and 1552909 and 1027714 and 1937158 and 1341520 and 1697592 and 1866146 and 1427750
- raw nLuc luminescence signal per well, dose response (icSARS-CoV-2-nLuc [1]; concentration 1.33333 µM): 1081320 and 1354101 and 1808712 and 2111860 and 1262757 and 1236512 and 1094043 and 1751641
- raw nLuc luminescence signal per well, dose response (icSARS-CoV-2-nLuc [1]; concentration 12 µM): 325338 and 397893 and 288277 and 313675 and 434098 and 457388 and 421160 and 498406
- raw nLuc luminescence signal per well, dose response (icSARS-CoV-2-nLuc [1]; concentration 36 µM): 152331 and 158422 and 131796 and 134954 and 143730 and 155578 and 143192 and 145460

Structure (SMILES): CC(C)C(=O)OC[C@H]1O[C@@H](n2ccc(NO)nc2=O)[C@H](O)[C@@H]1O [Molnupiravir]
- IC50 (icSARS-CoV-2-nLuc [1]; [5]): 1200 nM
- raw nLuc luminescence signal per well, dose response (icSARS-CoV-2-nLuc [1]; concentration 4 µM): 595475 and 830276 and 640577 and 536261 and 913575 and 492391 and 665617 and 629700
- raw nLuc luminescence signal per well, dose response (icSARS-CoV-2-nLuc [1]; concentration 12 µM): 258630 and 294602 and 224846 and 411089 and 320496 and 281484 and 318686 and 264637
- raw nLuc luminescence signal per well, dose response (icSARS-CoV-2-nLuc [1]; concentration 36 µM): 206765 and 173526 and 155560 and 157303 and 194898 and 197104 and 194373 and 153593

Structure (SMILES): CC(C)(C)[C@H](NC(=O)C(F)(F)F)C(=O)N1C[C@H]2[C@@H]([C@H]1C(=O)N[C@H](C#N)C[C@@H]1CCNC1=O)C2(C)C [Nirmatrelvir]
- IC50 (icSARS-CoV-2-nLuc [1]; [5]): 30 nM
- raw nLuc luminescence signal per well, dose response (icSARS-CoV-2-nLuc [1]; concentration 0.148148 µM): 129461 and 120874 and 136852 and 130464 and 147289 and 142579 and 149179 and 144629
- raw nLuc luminescence signal per well, dose response (icSARS-CoV-2-nLuc [1]; concentration 0.444444 µM): 144250 and 143681 and 125477 and 126336 and 137581 and 142321 and 138240 and 131508
- raw nLuc luminescence signal per well, dose response (icSARS-CoV-2-nLuc [1]; concentration 1.33333 µM): 118306 and 118449 and 125083 and 124306 and 125230 and 130577 and 130784 and 122912
- raw nLuc luminescence signal per well, dose response (icSARS-CoV-2-nLuc [1]; concentration 4 µM): 141288 and 139348 and 122581 and 121573 and 133806 and 135394 and 143645 and 132419
- raw nLuc luminescence signal per well, dose response (icSARS-CoV-2-nLuc [1]; concentration 12 µM): 120474 and 114610 and 123671 and 120946 and 130686 and 127115 and 126419 and 123917
- raw nLuc luminescence signal per well, dose response (icSARS-CoV-2-nLuc [1]; concentration 36 µM): 145649 and 139944 and 128235 and 120973 and 144302 and 134374 and 139812 and 128239

Structure (SMILES): CC(C)c1nc(CN(C)C(=O)N[C@H](C(=O)N[C@@H](Cc2ccccc2)C[C@H](O)[C@H](Cc2ccccc2)NC(=O)OCc2cncs2)C(C)C)cs1 [Ritonavir]
- IC50 (icSARS-CoV-2-nLuc [1]; [5]): 7200 nM
- raw nLuc luminescence signal per well, dose response (icSARS-CoV-2-nLuc [1]; concentration 0.444444 µM): 2035673 and 1546345 and 1888256 and 1167395 and 1955627 and 1676062 and 1569839 and 1463523
- raw nLuc luminescence signal per well, dose response (icSARS-CoV-2-nLuc [1]; concentration 4 µM): 1601511 and 1681837 and 928783 and 1028382 and 1282975 and 1526902 and 1006334 and 1132442
- raw nLuc luminescence signal per well, dose response (icSARS-CoV-2-nLuc [1]; concentration 36 µM): 183316 and 177778 and 167818 and 167859 and 159406 and 217854 and 184869 and 201752

Structure (SMILES): CCC(CC)COC(=O)[C@H](C)N[P@](=O)(OC[C@H]1O[C@@](C#N)(c2ccc3c(N)ncnn23)[C@H](O)[C@@H]1O)Oc1ccccc1 [REM, Remdesivir]
- %Spec (icSARS-CoV-2-nLuc [2]): 89.5% and 90.0% and 90.1%
- Luminescence signal, Mean (Low signal) (icSARS-CoV-2-nLuc [2]): 181028.44 and 176326.81 and 171413.00
- Luminescence signal, Mean (Mid signal) (icSARS-CoV-2-nLuc [2]): 237318.53 and 220683.44 and 197501.22
- Low (luminescence signal) (icSARS-CoV-2-nLuc [3]): 335845.000 and 285428.000 and 332082.000 and 282797.000
- Mid % (icSARS-CoV-2-nLuc [3]): 82.63% and 75.37% and 74.20% and 71.84%
- Mid (luminescence signal) (icSARS-CoV-2-nLuc [3]): 685741.000 and 855540.000 and 882878.000 and 938084.000
- Midpc (icSARS-CoV-2-nLuc [3]): 82.63 and 75.37 and 74.20 and 71.84
- IC50 (icSARS-CoV-2-nLuc [4]): 110 nM
- antiviral activity (raw luminescence signal per well) (icSARS-CoV-2-nLuc [1]): 150661 and 137685 and 146593 and 141302
- IC50 (icSARS-CoV-2-nLuc [1]; Severe acute respiratory syndrome coronavirus 2, A549-ACE2, 24 h, read-out: IC50 against icSARS-CoV-2-nLuc, luminescence data): 110 nM
- inhibition at 10 µM (icSARS-CoV-2-nLuc [1]; Severe acute respiratory syndrome coronavirus 2, A549-ACE2, 24 h, read-out: inhibition of the virus growth, single point screening): ≥ 90%
- raw nLuc luminescence signal per well, dose response (icSARS-CoV-2-nLuc [1]; concentration 0.444444 µM): 158425 and 172179 and 190756 and 205337
- raw nLuc luminescence signal per well, dose response (icSARS-CoV-2-nLuc [1]; concentration 4 µM): 140393 and 141108 and 138540
- raw nLuc luminescence signal per well, dose response (icSARS-CoV-2-nLuc [1]; concentration 36 µM): 142704 and 141754 and 139812
- MMV hits Cytotoxicity testing, raw plate signal (C3 cell line; REM 0.0175781 µM): 281684 and 292421
- MMV hits Cytotoxicity testing, raw plate signal (C3 cell line; REM 0.0351562 µM): 291406 and 276805
- MMV hits Cytotoxicity testing, raw plate signal (C3 cell line; REM 0.0703125 µM): 281356 and 294787
- MMV hits Cytotoxicity testing, raw plate signal (C3 cell line; REM 0.140625 µM): 287615 and 296564
- MMV hits Cytotoxicity testing, raw plate signal (C3 cell line; REM 0.28125 µM): 294079 and 296093
- MMV hits Cytotoxicity testing, raw plate signal (C3 cell line; REM 0.5625 µM): 294522 and 291744
- MMV hits Cytotoxicity testing, raw plate signal (C3 cell line; REM 1.125 µM): 302792 and 294805
- MMV hits Cytotoxicity testing, raw plate signal (C3 cell line; REM 2.25 µM): 325677 and 303163
- MMV hits Cytotoxicity testing, raw plate signal (C3 cell line; REM 4.5 µM): 318660 and 288026

Structure (SMILES): CCCC[C@H](NC(=O)[C@@H]1[C@@H]2[C@H](CN1C(=O)[C@@H](NC(=O)NC1(CS(=O)(=O)C(C)(C)C)CCCCC1)C(C)(C)C)C2(C)C)C(=O)C(=O)NC1CC1 [Naraprelvir]
- raw nLuc luminescence signal per well, dose response (icSARS-CoV-2-nLuc [1]; concentration 0.00548697 µM): 1369356 and 1475085 and 1731318 and 2527784 and 1481798 and 1643468 and 2199354 and 1849240
- raw nLuc luminescence signal per well, dose response (icSARS-CoV-2-nLuc [1]; concentration 0.0493827 µM): 1943993 and 1719572 and 1531026 and 1265407 and 2037762 and 2296036 and 2164802 and 2297300
- raw nLuc luminescence signal per well, dose response (icSARS-CoV-2-nLuc [1]; concentration 36 µM): 156020 and 155359 and 134274 and 128833 and 143226 and 151190 and 148617 and 136366

Structure (SMILES): CCCC[C@H](NC(=O)[C@@H]1[C@@H]2[C@H](CN1C(=O)[C@@H](NC(=O)NC1(CS(=O)(=O)C(C)(C)C)CCCCC1)C(C)(C)C)C2(C)C)C(=O)C(=O)NC1CC1 [Narlaprevir]
- IC50 (icSARS-CoV-2-nLuc [1]; [5]): 2000 nM
